# Experimental data taken from publication PMC4826192 (Oncotarget, 2015).
# Test system: MPNST (malignant peripheral nerve sheath tumor) cells
# Experiment: Cell viability assay (Dojindo CCK-8)
# Conditions: 72 hours
structure (smiles),measurement,setting,value
Cc1ccc(NC(=O)c2ccc(CN3CCN(C)CC3)cc2)cc1Nc1nccc(-c2cccnc2)n1 [imatinib],"anti-proliferative effect, comparison of TKIs",500 nmol/L,anti-proliferative effect similar to MGCD516
Cc1ccc(Nc2nccc(N(C)c3ccc4c(C)n(C)nc4c3)n2)cc1S(N)(=O)=O [pazopanib],"inhibition of MPNST cell proliferation, pazopanib versus MGCD516",,similar
